Results as given in PubChem BioAssay (NCI).
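Interpolation was linear, between the two tested concentrations surrounding the appropriate level; five concentrations were tested over 48 hours in 96-well plates. TGI: concentration producing complete growth inhibition.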 Where a SMILES comes first, the peptide text is derived from it. [ ]: non-standard residue; d: D form. The star is where a group is joined. ξ: configuration not given here. ξPhe(4-NO2) = NC(Cc1ccc([N+](=O)[O-])cc1)C(=O)O; Boc = CC(C)(C)OC(=O)*; OBn = c1ccc(CO*)cc1

Assays:
Experiment in all cases: inhibition of tumour cell growth, NCI panel, 48 h
[1] = system: 786-0 renal
[2] = system: HCT-15 colon
[3] = system: LOX IMVI melanoma
[4] = system: M14 melanoma
[5] = system: MDA-MB-231 breast
[6] = system: NCI/ADR-RES ovarian
[7] = system: OVCAR-4 ovarian
[8] = system: PC-3 prostate
[9] = system: SF-268 CNS
[10] = system: SF-539 CNS
[11] = system: SW-620 colon
[12] = system: UACC-257 melanoma
[13] = system: RPMI-8226 leukemia

For `CS(=O)(=O)c1[nH]nc2[nH]c(=O)[nH]c(=O)c12`, the TGI [1] was > 10 µM, the TGI [2] was > 10 µM and the TGI [3] was > 10 µM. The TGI [4] was > 10 µM, the TGI [5] was > 10 µM and the TGI [6] was > 10 µM. The TGI [7] was > 10 µM, the TGI [8] was > 10 µM and the TGI [9] was > 10 µM. The TGI [10] was > 10 µM, the TGI [11] was > 10 µM and the TGI [12] was > 10 µM.
For `CC(C)(C)OC(=O)NC(Cc1ccc([N+](=O)[O-])cc1)C(=O)NCC(=O)OCc1ccccc1` (stereo unspecified) (Boc-[ξPhe(4-NO2)]-Gly-OBn), the TGI [1] was 33.8 µM, the TGI [2] was 41.9 µM and the TGI [3] was 31.2 µM. The TGI [4] was 37.6 µM, the TGI [5] was 80.3 µM and the TGI [6] was > 100 µM. For the same compound, the TGI [7] was > 100 µM, the TGI [8] was 49.6 µM and the TGI [13] was 45.9 µM. For the same compound, the TGI [9] was 38.6 µM and the TGI [11] was > 100 µM.
For `COC(=O)C(/C(=N/N)C(=O)Nc1cc(Cl)c(Cl)cc1Cl)c1nc2ccc(Cl)cc2[nH]c1=O` (stereo unspecified), the TGI [1] was > 100 µM, the TGI [2] was > 100 µM and the TGI [3] was > 100 µM. For the same compound, the TGI [4] was > 100 µM, the TGI [5] was > 100 µM and the TGI [6] was > 100 µM. The TGI [7] was > 100 µM, the TGI [8] was > 100 µM and the TGI [13] was > 100 µM. The TGI [9] was > 100 µM, the TGI [10] was > 100 µM and the TGI [11] was > 100 µM. The TGI [12] was > 100 µM.
With `CC(=O)OCC1OC(n2c3c(c(-c4ccc(Cl)cc4)c(C#N)c2=S)C(=O)CC(C)(C)C3)C(OC(C)=O)C(OC(C)=O)C1OC(C)=O` (stereo unspecified) the TGI [1] was > 88.7 µM, the TGI [2] was 53.2 µM and the TGI [3] was 29.8 µM. The TGI [4] was > 100 µM, the TGI [5] was 37 µM and the TGI [6] was > 67.8 µM. For the same compound, the TGI [7] was > 100 µM, the TGI [8] was 63.6 µM and the TGI [13] was > 100 µM. The TGI [9] was 29 µM, the TGI [10] was > 68.7 µM and the TGI [11] was > 100 µM. The TGI [12] was 42.8 µM.
For `COC(C/C(=C/CO[Si](C(C)C)(C(C)C)C(C)C)C(=O)Nc1ccccc1I)OC`, the TGI [1] was > 100 µM, the TGI [2] was 71.1 µM and the TGI [3] was 45.5 µM. The TGI [4] was > 100 µM, the TGI [5] was 46 µM and the TGI [6] was > 100 µM. The TGI [7] was > 100 µM, the TGI [8] was 62.2 µM and the TGI [13] was 43.4 µM. The TGI [9] was > 100 µM, the TGI [10] was 48.4 µM and the TGI [11] was > 100 µM. The TGI [12] was > 100 µM.
In the case of `COC(=O)/C(C#N)=C1\NC(=O)CC(c2ccccc2)C1C#N` (stereo unspecified), the TGI [1] is reported as > 100 µM, the TGI [2] is reported as > 100 µM and the TGI [3] is reported as > 100 µM. The TGI [4] was > 100 µM, the TGI [5] was > 100 µM and the TGI [6] was > 100 µM. For the same compound, the TGI [7] was > 100 µM, the TGI [8] was > 100 µM and the TGI [13] was > 100 µM. The TGI [9] was > 100 µM, the TGI [10] was > 100 µM and the TGI [11] was > 100 µM. For the same compound, the TGI [12] was > 100 µM.
`OCCSCc1cc2c(O)c(c1)Cc1cc(CSCCO)cc(c1O)Cc1cc(CSCCO)cc(c1O)Cc1cc(CSCCO)cc(c1O)C2` showed a TGI [1] of 12.5 µM, a TGI [2] of 33 µM and a TGI [3] of 11.9 µM. For the same compound, the TGI [4] was 12.7 µM, the TGI [5] was 7.21 µM and the TGI [6] was 64.2 µM. The TGI [7] was 13.9 µM, the TGI [8] was 8.88 µM and the TGI [13] was 30.6 µM. The TGI [9] was 7.78 µM, the TGI [10] was 12.6 µM and the TGI [11] was 15.1 µM. It also gave a TGI [12] of 27.7 µM.
For `Cc1ccc(S(=O)(=O)[N-]C2C(=O)c3ccccc3C(=O)C2[n+]2cccc(C(N)=O)c2)cc1` (stereo unspecified), the TGI [1] was > 100 µM, the TGI [2] was > 100 µM and the TGI [3] was > 100 µM. The TGI [4] was > 100 µM, the TGI [5] was > 100 µM and the TGI [6] was > 100 µM. The TGI [7] was > 100 µM, the TGI [8] was > 100 µM and the TGI [13] was > 100 µM. The TGI [9] was > 100 µM, the TGI [10] was > 100 µM and the TGI [11] was > 100 µM. For the same compound, the TGI [12] was > 100 µM.
